Measured values from PMC5513091, “A novel Alzheimer’s disease drug candidate targeting inflammation and fatty acid metabolism” (Alzheimer's Research & Therapy, 2017).

System: plasma metabolites
Assay: Metabolomic analysis of plasma
Format: in vivo, mice
Details: WT control mice fed CAD-31 200 ppm 3 months vs control
Procedure: Metabolomic analyses were conducted at Metabolon (Durham, NC, USA) as described previously. For statistical analyses and data display, any missing values were assumed to be below the limits of detection and imputed with the compound minimum (minimum value imputation). An estimate of the FDR (Q value) was calculated to take into account the multiple comparisons that normally occur in metabolomics-based studies, with Q < 0.05 used as an indication of high confidence in a result. The MetaboAnalyst tool was used to generate heat maps.

Cc1ccc(N(/N=C/c2cccc(OC(F)(F)F)c2)C(=O)C(F)(F)F)c(C)c1 [CAD-31]
1,2-dipalmitoyl-GPC (16:0/16:0) Fold Change C+31/C: 1.26
1-arachidonoyl-GPC (20:4n6)* Fold Change C+31/C: 1.04
1-myristoylglycerol (14:0) Fold Change C+31/C: 0.59
1-oleoylglycerol (18:1) Fold Change C+31/C: 0.64
1-palmitoyl-2-arachidonoyl-GPC (16:0/20:4n6) Fold Change C+31/C: 1.11
1-palmitoyl-2-stearoyl-GPC (16:0/18:0) Fold Change C+31/C: 1.1
1-stearoyl-GPE (18:0) Fold Change C+31/C: 1.01
2-palmitoylglycerol (16:0) Fold Change C+31/C: 0.79
3-acetylphenol sulfate Fold Change C+31/C: 0.21
3-ethylphenylsulfate Fold Change C+31/C: 2.27
3-hydroxy-3-methylglutarate Fold Change C+31/C: 0.99
3-hydroxybutyrate (BHBA) Fold Change C+31/C: 1.83
3-hydroxypyridine sulfate Fold Change C+31/C: 0.72
3-indoxyl sulfate Fold Change C+31/C: 0.63
4-hydroxyhippurate Fold Change C+31/C: 0.42
4-hydroxyphenylpyruvate Fold Change C+31/C: 1.65
5-hydroxyindoleacetate Fold Change C+31/C: 0.83
5-oxoproline Fold Change C+31/C: 1.27
7-ketodeoxycholate Fold Change C+31/C: 1.33
9,10-DiHOME Fold Change C+31/C: 0.65
10-heptadecenoate (17:1n7) Fold Change C+31/C: 0.51
10-nonadecenoate (19:1n9) Fold Change C+31/C: 0.6
10-undecenoate (11:1n1) Fold Change C+31/C: 0.75
15-methylpalmitate Fold Change C+31/C: 0.52
17-methylstearate Fold Change C+31/C: 0.62
N2-acetyllysine Fold Change C+31/C: 0.71
N-acetyl-3-methylhistidine* Fold Change C+31/C: 0.84
N-acetylmethionine Fold Change C+31/C: 1.6
N-acetylphenylalanine Fold Change C+31/C: 1.41
N-acetylserine Fold Change C+31/C: 1.09
N-carbamoylaspartate Fold Change C+31/C: 0.54
N-delta-acetylornithine Fold Change C+31/C: 1.42
N-palmitoyl-sphinganine (d18:0/16:0) Fold Change C+31/C: 1.08
N-stearoyl-sphingosine (d18:1/18:0)* Fold Change C+31/C: 1.12
acetylcarnitine Fold Change C+31/C: 1.65
alpha-tocopherol Fold Change C+31/C: 1.05
arabonate/xylonate Fold Change C+31/C: 0.83
asparagine Fold Change C+31/C: 1.48
beta-muricholate Fold Change C+31/C: 1.78
caffeic acid sulfate Fold Change C+31/C: 2.12
carnosine Fold Change C+31/C: 0.62
chenodeoxycholate Fold Change C+31/C: 0.67
choline phosphate Fold Change C+31/C: 1.53
creatine Fold Change C+31/C: 1.23
dihydroorotate Fold Change C+31/C: 2.98
dopamine sulfate (2) Fold Change C+31/C: 0.94
equol glucuronide Fold Change C+31/C: 0.18
ergothioneine Fold Change C+31/C: 0.68
erythritol Fold Change C+31/C: 1.06
erythronate* Fold Change C+31/C: 1.02
gamma-glutamylglutamate Fold Change C+31/C: 2.69
gamma-glutamylglutamine Fold Change C+31/C: 1.94
gamma-glutamylleucine Fold Change C+31/C: 1.86
gamma-glutamylmethionine Fold Change C+31/C: 2.24
gamma-glutamylphenylalanine Fold Change C+31/C: 1.84
gamma-glutamylthreonine Fold Change C+31/C: 2.07
gamma-glutamyltryptophan Fold Change C+31/C: 1.81
gamma-glutamyltyrosine Fold Change C+31/C: 2.33
glucuronate Fold Change C+31/C: 1.04
glutamate Fold Change C+31/C: 1.71
glutathione, oxidized (GSSG) Fold Change C+31/C: 2.09
glycosyl-N-palmitoyl-sphingosine (d18:1/16:0) Fold Change C+31/C: 1.25
glycosyl-N-stearoyl-sphingosine (d18:1/18:0) Fold Change C+31/C: 0.76
gulonate* Fold Change C+31/C: 1.01
hexanoylglycine Fold Change C+31/C: 2.77
indoleacetylglycine Fold Change C+31/C: 0.57
isobutyrylcarnitine Fold Change C+31/C: 5.46
linoleate (18:2n6) Fold Change C+31/C: 0.67
margarate (17:0) Fold Change C+31/C: 0.6
methionine sulfoxide Fold Change C+31/C: 1.52
methylmalonate (MMA) Fold Change C+31/C: 0.87
o-cresol sulfate Fold Change C+31/C: 0.93
oleoylcarnitine Fold Change C+31/C: 1.42
palmitoleoylcarnitine* Fold Change C+31/C: 1.81
palmitoyl dihydrosphingomyelin (d18:0/16:0)* Fold Change C+31/C: 1.09
palmitoyl sphingomyelin (d18:1/16:0) Fold Change C+31/C: 1.05
palmitoyl-palmitoyl-glycerol (16:0/16:0) [1]* Fold Change C+31/C: 0.51
pentadecanoate (15:0) Fold Change C+31/C: 0.71
phenol sulfate Fold Change C+31/C: 0.59
phenylpropionylglycine Fold Change C+31/C: 3.88
phosphoethanolamine Fold Change C+31/C: 1.64
pyridoxal Fold Change C+31/C: 1.54
pyridoxate Fold Change C+31/C: 1.33
pyruvate Fold Change C+31/C: 1.2
ribonate Fold Change C+31/C: 1.07
sphinganine-1-phosphate Fold Change C+31/C: 2.52
sphingosine Fold Change C+31/C: 1.14
stearidonate (18:4n3) Fold Change C+31/C: 0.65
suberate (octanedioate) Fold Change C+31/C: 1.17
sucrose Fold Change C+31/C: 2.7
tartronate (hydroxymalonate) Fold Change C+31/C: 1.47
taurine Fold Change C+31/C: 1.26
threonine Fold Change C+31/C: 1.42
tryptophan Fold Change C+31/C: 1.12
ursodeoxycholate Fold Change C+31/C: 0.49
